# In patent publication US11884675B2, “Heterocyclic compounds as triggering receptor expressed on myeloid cells 2 agonists and methods of use” (AMGEN INC., priority 2020, dated 2024):
# Target: hTREM2 (Homo sapiens, UniProt Q9NZC2)
# Experiment: TREM2 agonist potency by Syk phosphorylation (AlphaLisa) in HEK293T-hTREM2 cells, used for Examples 306-429
# Format: cell-based
# Design: expressed in transfected cells; host or cells: HEK293T (HEK293T-hTREM2 cells)
# Details: HEK293 Cells
# Experimental: In vitro Measurement of Triggering Receptor Expressed on Myeloid Cells 2 activity using cellular phosphorylation of Spleen Tyrosine Kinase (“Syk”) Assays used for Examples 306-429
# Measurement of TREM2 agonist potency was done using a HEK cell line expressing human TREM2 and DAP12 (HEK293T-hTREM2 cells). Binding of small molecules to, and activation of, TREM2 increases the phosphorylation of Syk. The resultant levels of Syk phosphorylation were measured using a commercial AlphaLisa reagent kit. To perform the assay, HEK-hTREM2 cells were plated at 14,000 cells per well in a 384 well plate, in 25 μL, of complete growth media and incubated at 37° C., 5% CO2 for 20-24 hours. Prior to the assay, test compounds were diluted in the 384 well plates in assay buffer and allowed to equilibrate for 30 minutes. Growth media was removed from cell plates by inversion on blotting paper, and 25 μL of test compounds in assay buffer was added to cells. Cells were incubated for 45 minutes at room temperature. After 45 minutes, assay buffer was removed and 10 μL of lysis buffer was added. Plates were shaken for 20 minutes at 350 RPM at room temperature. After complete lysis, AlphaLisa reagents were added to the lysate, and fluourescence intensity was measured using a Perkin Elmer Envision plate reader. Intensities were used to generate a standard curve, and % activation was calculated. Curve fitting was performed using Prism v9 software, log(agonist) vs response-variable slope (four parameters), and EC50s were calculated from the curve fit.
# The results presented in Table 20 have been generated with the in vitro assay described above for Examples 306-429. This assay may be used to test any of the compounds described herein to assess and characterize a compound's ability to act as an agonist of TREM2.
# Chain of hTREM2 (Q9NZC2 19-230): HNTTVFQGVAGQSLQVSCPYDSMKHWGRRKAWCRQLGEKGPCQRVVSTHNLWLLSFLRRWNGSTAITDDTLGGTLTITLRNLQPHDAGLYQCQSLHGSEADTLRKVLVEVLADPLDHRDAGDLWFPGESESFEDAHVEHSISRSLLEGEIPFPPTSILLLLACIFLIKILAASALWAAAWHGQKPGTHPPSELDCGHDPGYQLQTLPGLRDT
# Chain of hTREM2 (O43914 22-113 partner): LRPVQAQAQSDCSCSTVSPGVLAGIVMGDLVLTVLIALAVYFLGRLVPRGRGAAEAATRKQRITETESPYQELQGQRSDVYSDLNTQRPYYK
row,EC50 [µM],Compound
1,≤ 0.05,"Cc1nc2nc(N3C[C@@H](C)O[C@@H](c4cnn(C5CC5)c4)C3)nc(-c3ccc(Cl)cc3F)c2nc1C (racemic) [Example 373, 4-(4-(4-chloro-2-fluorophenyl)-6,7-dimethylpteridin-2-yl)-2-(1-cyclopropyl-1H-pyrazol-4-yl)-6-methylmorpholine]"
2,≤ 0.05,"Cc1cnc2c(-c3ccc(Cl)cc3F)nc(N3C[C@H](C)O[C@@H](c4cnn(C5CC5)c4)C3)nc2n1 (racemic) [Example 374, 4-(4-(4-chloro-2-fluorophenyl)-7-methylpteridin-2-yl)-2-(1-cyclopropyl-1H-pyrazol-4-yl)-6-methylmorpholine]"
3,0.05 to 0.5,"Cc1cnc2c(C34CC(C(F)(F)F)(C3)C4)nc(N3C[C@@H](C)O[C@@H](c4cnn(C5CC5)c4)C3)cc2n1 (racemic) [Example 377, 2-(1-cyclopropylpyrazol-4-yl)-6-methyl-4-[2-methyl-5-[3-(trifluoromethyl)-1-bicyclo[1.1.1]pentanyl]pyrido[3,4-b]pyrazin-7-yl]morpholine]"
4,0.05 to 0.5,"Cc1nc2cc(N3C[C@H](C)O[C@@H](c4cnn(C5CC5)c4)C3)nc(C34CC(C(F)(F)F)(C3)C4)c2nc1C (racemic) [Example 378, 2-(1-cyclopropylpyrazol-4-yl)-4-[2,3-dimethyl-5-[3-(trifluoromethyl)-1-bicyclo[1.1.1]pentanyl]pyrido[3,4-b]pyrazin-7-yl]-6-methyl-morpholine]"
5,0.05 to 0.5,"Cc1nc2cc(N3C[C@@H](C)O[C@@H](c4cnn(C5CC5)c4)C3)nc(C34CC(C(F)(F)F)(C3)C4)c2nc1C (racemic) [Example 379, 2-(1-cyclopropylpyrazol-4-yl)-4-[2,3-dimethyl-5-[3-(trifluoromethyl)-1-bicyclo[1.1.1]pentanyl]pyrido[3,4-b]pyrazin-7-yl]-6-methyl-morpholine]"
6,≤ 0.05,"Cc1cnc2c(C34CC(C(F)(F)F)(C3)C4)nc([C@H]3CCO[C@@H](c4cnn(C5CC5)c4)C3)cc2n1 (racemic) [Example 386, 2-methyl-7-[2-(1-cyclopropylpyrazol-4-yl)tetrahydropyran-4-yl]-5-[3-(trifluoromethyl)-1-bicyclo[1.1.1]pentanyl]pyrido[3,4-b]pyrazine]"
7,0.05 to 0.5,"Cc1cnc2c(-c3ccc(F)cc3F)nc([C@H]3CCO[C@@H](c4cnn(C5CC5)c4)C3)cc2n1 (racemic) [Example 388, 5-(2,4-difluorophenyl)-2-methyl-7-[2-(1-cyclopropylpyrazol-4-yl)tetrahydropyran-4-yl]pyrido[3,4-b]pyrazine]"
8,≤ 0.05,"Cc1cc([C@@H]2C[C@H](c3nc(-c4cc(F)c(Cl)c(F)c4)c4nc(C)c(C)nc4n3)CCO2)ccn1 (racemic) [Example 389, 4-(4-chloro-3,5-difluoro-phenyl)-6,7-dimethyl-2-[2-(2-methyl-4-pyridyl)tetrahydropyran-4-yl]pteridine]"
9,0.05 to 0.5,"Cc1nc2cc([C@H]3CCO[C@@H](c4cnn(C5CC5)c4)C3)nc(-c3ccc(F)cc3F)c2nc1C (racemic) [Example 393, 7-[2-(1-cyclopropylpyrazol-4-yl)tetrahydropyran-4-yl]-5-(2,4-difluorophenyl)-2,3-dimethyl-pyrido[3,4-b]pyrazine]"
10,≤ 0.05,"[2H]C([2H])([2H])c1nc2nc([C@H]3CCO[C@@H](c4ccnc(C)c4)C3)nc(-c3ccc(Cl)c(F)c3F)c2nc1C([2H])([2H])[2H] (racemic) [Example 395, 4-(4-chloro-2,3-difluoro-phenyl)-2-[2-(2-methyl-4-pyridyl)tetrahydropyran-4-yl]-6,7-bis(trideuteriomethyl)pteridine]"
11,≤ 0.05,"Cc1cc([C@H]2C[C@@H](c3cc4nc(C)c(C)cc4c(-c4ccc(F)cc4F)n3)CCO2)ccn1 (racemic) [Example 399, 5-(2,4-difluorophenyl)-2,3-dimethyl-7-[2-(2-methyl-4-pyridyl)tetrahydropyran-4-yl]-1,6-naphthyridine]"
12,≤ 0.05,"Cc1cc([C@H]2C[C@H](c3cc4nc(C)c(C)cc4c(-c4ccc(F)cc4F)n3)CCO2)ccn1 (racemic) [Example 400, 5-(2,4-difluorophenyl)-2,3-dimethyl-7-[2-(2-methyl-4-pyridyl)tetrahydropyran-4-yl]-1,6-naphthyridine]"
13,≤ 0.05,"Cc1cc([C@H]2C[C@@H](c3cc4nc(C)c(C)cc4c(-c4ccc(Cl)cc4F)n3)CCO2)ccn1 (racemic) [Example 401, 5-(4-chloro-2-fluoro-phenyl)-2,3-dimethyl-7-[2-(2-methyl-4-pyridyl)tetrahydropyran-4-yl]-1,6-naphthyridine]"
14,0.05 to 0.5,"Cc1nc2nc([C@@H]3CCO[C@@H](c4cnn(C5CC5)c4)C3)nc(C34CC(C(F)(F)F)(C3)C4)c2nc1C (stereo in doubt) [Example 365, 2-(2-(1-cyclopropyl-1H-pyrazol-4-yl)tetrahydro-2H-pyran-4-yl)-6,7-dimethyl-4-(3-(trifluoromethyl)bicyclo[1.1.1]pentan-1-yl)pteridine]"
15,≤ 0.05,"Cc1nc2nc([C@H]3CCO[C@@H](c4cnn(C5CC5)c4)C3)nc(C34CC(C(F)(F)F)(C3)C4)c2nc1C (stereo in doubt) [Example 366, 2-(2-(1-cyclopropyl-1H-pyrazol-4-yl)tetrahydro-2H-pyran-4-yl)-6,7-dimethyl-4-(3-(trifluoromethyl)bicyclo[1.1.1]pentan-1-yl)pteridine]"
16,0.05 to 0.5,"Cc1cc(C2CN(c3cc4nc(C)cnc4c(-c4ccc(C(F)(F)F)nc4)n3)CCO2)ccn1 (stereo not shown) [Example 311, 4-(2-methyl-5-(6-(trifluoromethyl)pyridin-3-yl)pyrido[3,4-b]pyrazin-7-yl)-2-(2-methylpyridin-4-yl)morpholine]"
17,≤ 0.05,"Cc1cc(C2CN(c3cc4nc(C)c(C)nc4c(-c4ccc(C(F)(F)F)nc4)n3)CCO2)ccn1 (stereo not shown) [Example 312, 4-(2,3-dimethyl-5-(6-(trifluoromethyl)pyridin-3-yl)pyrido[3,4-b]pyrazin-7-yl)-2-(2-methylpyridin-4-yl)morpholine]"
18,≤ 0.05,"Cc1cc(C2CN(c3cc4nc(C)cnc4c(-c4ccc(F)cc4F)n3)CCO2)ccn1 (stereo not shown) [Example 313, 4-(5-(2,4-difluorophenyl)-2-methylpyrido[3,4-b]pyrazin-7-yl)-2-(2-methylpyridin-4-yl)morpholine]"
19,≤ 0.05,"COc1cc(C2CN(c3nc(-c4ccc(Cl)cc4F)c4nc(C)c(C)nc4n3)CCO2)ccn1 (stereo not shown) [Example 314, 4-(4-(4-chloro-2-fluorophenyl)-6,7-dimethylpteridin-2-yl)-2-(2-methoxypyridin-4-yl)morpholine]"
20,≤ 0.05,"Cc1cc(C2CN(c3cc4nc(C)c(C)nc4c(-c4ccc(F)cc4F)n3)CCO2)ccn1 (stereo not shown) [Example 315, 4-(5-(2,4-difluorophenyl)-2,3-dimethylpyrido[3,4-b]pyrazin-7-yl)-2-(2-methylpyridin-4-yl)morpholine]"
21,0.05 to 0.5,"Cc1cc([C@@H]2C[C@H](c3cc4nc(C)c(C)nc4c(-c4ccc(F)cc4F)n3)CCO2)ccn1 [Example 316, 5-(2,4-difluorophenyl)-2,3-dimethyl-7-[(2S,4R)-2-(2-methyl-4-pyridyl)tetrahydropyran-4-yl]pyrido[3,4-b]pyrazine]"
22,≤ 0.05,"Cc1cc([C@H]2C[C@@H](c3cc4nc(C)c(C)nc4c(-c4ccc(F)cc4F)n3)CCO2)ccn1 [Example 317, 5-(2,4-difluorophenyl)-2,3-dimethyl-7-[(2R,4S)-2-(2-methyl-4-pyridyl)tetrahydropyran-4-yl]pyrido[3,4-b]pyrazine]"
